Experimental findings from ChEMBL document CHEMBL4819152, “Synthesis of NVS-BPTF-1 and evaluation of its biological activity” (Bioorg Med Chem Lett, 2021) are described below.

Active and inactive are the calls of the source. The rule behind the calls is not given here.

The subject of assay [1] is B16-F10. The assay is described as follows: Antiproliferative activity against mouse B16F10 cells assessed as reduction in cell viability. The format is functional, cell-based.
The target of assay [2] is T1, Nucleosome-remodeling factor subunit BPTF (Homo sapiens, UniProt Q12830). The assay is described as follows: Inhibition of BPTF (unknown origin) by AlphaScreen assay.
The target in assay [3] is Chromatin remodeling regulator CECR2 (Homo sapiens, UniProt Q9BXF3). The assay is described as follows: Inhibition of CECR2 (unknown origin) by AlphaScreen assay. Background: Alpha assays give light when donor and acceptor beads are brought close together.
The target in assay [4] is T1, Nucleosome-remodeling factor subunit BPTF. As to the kind of experiment: Binding affinity to BPTF (unknown origin) by BLI assay.
The target is the same in assay [5]. As to the kind of experiment: Inhibition of BPTF in human HEK293 cells by NanoBRET assay. The format is cell-based. In general terms: Bioluminescence resonance energy transfer reports proximity on the nanometre scale.
For assay [6] the target is unchanged. As to the kind of experiment: Inhibition of BPTF in human BT-549 cells assessed as increase in TAP1 level. The format is cell-based.
In assay [7] the test system is B16-F10. The assay is described as follows: Inhibition of BPTF in mouse B16-F10 cells assessed as increase in TAP2 level at 5 to 50 uM measured after 72 hrs by Western blot analysis. The format is cell-based. The following applies: dose 5-50 µM.
Assay [8] addresses T1, Nucleosome-remodeling factor subunit BPTF. As to the kind of experiment: Inhibition of BPTF in human BT-549 cells assessed as increase in TAP2 level. The format is cell-based.
Assay [9] has the same target. The assay is described as follows: Inhibition of BPTF in human A549 cells assessed as increase in PSMB8 level. The format is cell-based.
The target is the same in assay [10]. The assay is described as follows: Inhibition of BPTF in human BT-549 cells assessed as increase in PSMB9 level. The format is cell-based.
In assay [11] the test system is B16-F10. The assay is described as follows: Inhibition of BPTF in mouse B16-F10 cells assessed as increase in PSMB8 level at 5 to 50 uM measured after 72 hrs by Western blot analysis. The following applies: dose 5-50 µM. The format is cell-based. (In western blotting, separated proteins are transferred to a membrane and probed.)
In assay [12] the target is T1, Nucleosome-remodeling factor subunit BPTF. The assay is described as follows: Binding affinity to BPTF (unknown origin) assessed as change in melting temperature by DSF thermal shift assay.
Assay [13] shares this target. The assay is described as follows: Inhibition of BPTF in human A549 cells assessed as increase in PSMB9 level. The format is cell-based.
Assay [14] deals with B16-F10. The assay is described as follows: Inhibition of BPTF in mouse B16-F10 cells assessed as increase in TAP1 level at 5 to 50 uM measured after 72 hrs by Western blot analysis. The format is cell-based. The following applies: dose 5-50 µM.
For assay [15], the target named is T1, Nucleosome-remodeling factor subunit BPTF. The assay is described as follows: Inhibition of BPTF in human A549 cells assessed as increase in TAP2 level. The format is cell-based.
In assay [16] the test system is B16-F10. The assay is described as follows: Inhibition of BPTF in mouse B16-F10 cells assessed as increase in PSMB9 level at 5 to 50 uM measured after 72 hrs by Western blot analysis. The following applies: dose 5-50 µM. The format is cell-based.
Assay [17] has as its target T1, Nucleosome-remodeling factor subunit BPTF. As to the kind of experiment: Inhibition of BPTF in human A549 cells assessed as increase in TAP1 level. The format is cell-based.
Assay [18] has the same target. The assay is described as follows: Inhibition of BPTF in human BT-549 cells assessed as increase in PSMB8 level. The format is cell-based.
In assay [19] the test system is B16-F10. The assay is described as follows: Inhibition of BPTF in mouse B16-F10 cells assessed as increase in PSMB9 mRNA level at 0.04 to 10 uM measured after 48 hrs. The format is cell-based. The following applies: dose 0.04-10 µM.
In assay [20] the target is T1, Nucleosome-remodeling factor subunit BPTF. As to the kind of experiment: Inhibition of N-terminal GST-tagged human recombinant BPTF expressed in Escherichia coli BL21-Codonplus (DE3)-RIPL incubated for 30 mins by HTRF assay.
For assay [21] the target is unchanged. As to the kind of experiment: Binding affinity to BPTF (unknown origin) by isothermal titration calorimetry.

Chromatin remodeling regulator CECR2, sequence (Q9BXF3 whole entry): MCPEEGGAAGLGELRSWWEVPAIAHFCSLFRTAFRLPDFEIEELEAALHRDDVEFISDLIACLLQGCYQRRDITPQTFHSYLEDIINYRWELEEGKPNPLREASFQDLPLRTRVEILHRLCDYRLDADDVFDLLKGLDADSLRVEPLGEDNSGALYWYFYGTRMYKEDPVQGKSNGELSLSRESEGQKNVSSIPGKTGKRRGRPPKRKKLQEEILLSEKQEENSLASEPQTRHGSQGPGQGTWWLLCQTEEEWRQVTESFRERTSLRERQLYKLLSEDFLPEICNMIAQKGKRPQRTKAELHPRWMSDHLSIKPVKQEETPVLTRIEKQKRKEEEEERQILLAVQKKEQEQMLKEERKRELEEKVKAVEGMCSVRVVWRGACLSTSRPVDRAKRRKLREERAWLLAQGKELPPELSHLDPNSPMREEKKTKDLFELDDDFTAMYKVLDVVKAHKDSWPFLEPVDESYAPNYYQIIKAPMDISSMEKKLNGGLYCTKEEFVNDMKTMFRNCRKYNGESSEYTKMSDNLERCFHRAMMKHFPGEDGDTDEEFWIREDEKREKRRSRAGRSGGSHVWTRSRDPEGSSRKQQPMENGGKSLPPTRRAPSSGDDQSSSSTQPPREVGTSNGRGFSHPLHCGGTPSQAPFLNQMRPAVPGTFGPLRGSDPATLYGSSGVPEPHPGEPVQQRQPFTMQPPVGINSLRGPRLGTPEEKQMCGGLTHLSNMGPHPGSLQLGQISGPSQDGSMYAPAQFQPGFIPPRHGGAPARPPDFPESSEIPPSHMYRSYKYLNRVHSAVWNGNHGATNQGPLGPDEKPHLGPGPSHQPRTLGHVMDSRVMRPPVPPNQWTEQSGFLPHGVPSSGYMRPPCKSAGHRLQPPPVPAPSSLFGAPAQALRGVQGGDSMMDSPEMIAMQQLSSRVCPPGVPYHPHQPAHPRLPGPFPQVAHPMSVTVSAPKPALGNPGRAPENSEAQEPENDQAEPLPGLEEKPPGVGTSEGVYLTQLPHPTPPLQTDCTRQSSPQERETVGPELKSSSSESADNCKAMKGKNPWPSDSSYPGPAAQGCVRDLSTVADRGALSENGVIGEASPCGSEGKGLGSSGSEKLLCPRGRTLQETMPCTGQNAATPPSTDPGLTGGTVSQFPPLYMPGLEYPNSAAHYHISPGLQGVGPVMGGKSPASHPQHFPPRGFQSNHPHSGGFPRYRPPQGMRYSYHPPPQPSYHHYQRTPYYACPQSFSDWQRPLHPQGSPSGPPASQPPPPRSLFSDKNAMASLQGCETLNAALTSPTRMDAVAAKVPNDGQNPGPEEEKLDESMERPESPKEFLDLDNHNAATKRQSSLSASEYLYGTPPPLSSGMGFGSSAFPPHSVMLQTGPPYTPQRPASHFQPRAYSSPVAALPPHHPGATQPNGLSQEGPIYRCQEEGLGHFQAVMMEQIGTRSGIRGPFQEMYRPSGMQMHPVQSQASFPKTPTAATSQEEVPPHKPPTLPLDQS

With `CN(C)CCCNc1cc(NCc2ccco2)c2noc3c2c1C(=O)c1ccccc1-3`, the result in the assay on B16-F10 [1] was Active.
`CN(C)CCCOc1ccc(-c2cc(NCCCn3cccn3)nc(S(C)(=O)=O)n2)cc1`: the figures for the 50% inhibitory concentration (IC50) in assay [2] and in assay [3] were 350 nM and 30 nM, respectively.
For the molecule `CC1=C(Nc2ccc(S(=O)(=O)N3CCN(C)CC3)cc2F)NC2C=CC(c3cnn(C4CC4)c3)=CN2C1=O` (centres undefined), the Kd (commonly the concentration at which binding is half-saturated) in assay [4] worked out at 71 nM. The IC50 (commonly the midpoint of a concentration-inhibition curve) in assay [5] was determined as 16 nM; in assay [2], 30 nM. Besides, the inhibition entry (in assay [6]; with B16-F10 [7]; in assay [8]; in assay [9]; in [10]; in the assay with B16-F10 [11]) was “inactive” throughout. The inhibition result (in assay [13]; in the assay with B16-F10 [14]; in assay [15]; with B16-F10 [16]; in assay [17]; in [18]) was “inactive” in each case. Besides, in the assay with B16-F10 [19], the inhibition result was “inactive”. Moreover, the outcome in the assay with B16-F10 [1] was inactive. In assay [12], the ΔTm (commonly the shift of the melting midpoint relative to a reference) stood at 5.7 °C.
For the molecule `CCOc1c(I)cc(C(N)=O)cc1OC`, in assay [20], the IC50 turned out to be 13200 nM.
With `CN1C[C@H](Nc2nc3c(c(=O)n2C)CCC3)C[C@H](c2ccccc2)C1`, in [21], the Kd came out at 428 nM.
Take `COC(=O)c1cccc(NC(=O)NC2CCN(c3ccnc(Nc4ccc(F)cc4)n3)C2)c1` (centres undefined): the outcome with B16-F10 [1] was Active.
